# Values quoted from earlier work, collected in PMC5758054 (Journal of natural products, 2017).
# System: murine colorectal cancer lung metasteses
# Conditions: ref [36],[37]
smiles,measurement,value
N#C[C@@H]1CCCN1C(=O)CNC12CC3CC(CC(O)(C3)C1)C2 [Vildagliptin],in vivo tumor suppressor activity (in words),has in vivo tumor suppressor activity
